Compound in this assay: CC1=C(C=CC(=C1)[N+](=O)[O-])NS(=O)(=O)C2=C(C=CC(=C2)Cl)Cl [FH535] + Cc1nc(NC(=O)N2CCC[C@H]2C(N)=O)sc1-c1ccnc(C(C)(C)C(F)(F)F)c1 [Alpelisib] (partner 2 µM)
The experiment in a line: relative viability (nuclei count vs DMSO), 5 days (fraction); higher = more cells survive. In short, it runs like this: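 After 5 days of treatment, lung cancer cells in 1536-well plates were fixed and stained in a single step (final 0.05% Triton X-100, 1% formaldehyde, 1 ug/ml Hoechst) and their nuclei counted on 4× images. Treatment had been applied by pin tool the day after seeding as one drug alone or as a fixed anchor-drug dose with five library-drug doses (not always all listed) in √10 steps. Relative viability is the nuclei count of treated wells divided by that of vehicle wells, and values are medians of duplicate plates.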

With PC-14, the relative viability was 0.88 (first compound 0.04 µM), 0.967 (first compound 0.1265 µM), 0.94 (first compound 0.4 µM) and 0.925 (first compound 1.265 µM).

For NCI-H322M, the relative viability reads like this: (first compound 0.04 µM) 0.722; (first compound 0.1265 µM) 0.783; (first compound 0.4 µM) 0.83; (first compound 1.265 µM) 0.761.

For NCI-H1944, the relative viability by setting is: (first compound 0.1265 µM) 0.858; (first compound 0.4 µM) 0.848; (first compound 1.265 µM) 0.837.

In the case of NCI-H2170, the relative viability runs as follows: (first compound 0.04 µM) 0.853; (first compound 0.1265 µM) 0.965; (first compound 0.4 µM) 0.784; (first compound 1.265 µM) 0.769.

LK-2: the relative viability runs as follows: (first compound 0.04 µM) 0.915; (first compound 0.1265 µM) 1.06; (first compound 0.4 µM) 1.09; (first compound 1.265 µM) 1.01.

As for RERF-LC-KJ, the relative viability (first compound 0.04 µM) was found to be 0.739, the relative viability (first compound 0.1265 µM) amounted to 0.822, the relative viability (first compound 0.4 µM) was 0.921 and the relative viability (first compound 1.265 µM) was 0.751.

On to COR-L23, for which the relative viability (first compound 0.04 µM) came out at 0.799, the relative viability (first compound 0.1265 µM) turned out to be 0.718, the relative viability (first compound 0.4 µM) came out at 0.681 and the relative viability (first compound 1.265 µM) stood at 0.499.

Take NCI-H1355: the relative viability by setting is: (first compound 0.04 µM) 0.786; (first compound 0.1265 µM) 0.87; (first compound 0.4 µM) 0.818; (first compound 1.265 µM) 0.401.

Take NCI-H520: the relative viability reads like this: (first compound 0.04 µM) 0.825; (first compound 0.1265 µM) 0.931; (first compound 0.4 µM) 0.952; (first compound 1.265 µM) 0.799.

Take NCI-H1993: the relative viability runs as follows: (first compound 0.04 µM) 0.629; (first compound 0.1265 µM) 0.78; (first compound 0.4 µM) 0.662; (first compound 1.265 µM) 0.596.

As to HCC-15, the relative viability is 0.864 (first compound 0.04 µM), 0.819 (first compound 0.1265 µM), 0.85 (first compound 0.4 µM) and 0.646 (first compound 1.265 µM).

As to NCI-H2347, the relative viability by setting is: (first compound 0.04 µM) 1.01; (first compound 0.1265 µM) 1.09; (first compound 0.4 µM) 0.966; (first compound 1.265 µM) 0.837.

In the case of NCI-H1395, the relative viability runs as follows: (first compound 0.04 µM) 0.847; (first compound 0.1265 µM) 1.09; (first compound 0.4 µM) 1.1; (first compound 1.265 µM) 0.84.

As to NCI-H1666, the relative viability worked out at 1.04 (first compound 0.04 µM), 0.956 (first compound 0.1265 µM), 1.01 (first compound 0.4 µM) and 0.693 (first compound 1.265 µM).

As for NCI-H3122, the relative viability was 0.715 (first compound 0.04 µM), 0.782 (first compound 0.1265 µM), 0.829 (first compound 0.4 µM) and 0.745 (first compound 1.265 µM).

On to NCI-H2009, for which the relative viability reads like this: (first compound 0.04 µM) 1.15; (first compound 0.1265 µM) 1.16; (first compound 0.4 µM) 1.17; (first compound 1.265 µM) 0.959.

For the cell line HCC-78, the relative viability (first compound 0.04 µM) is 0.345, the relative viability (first compound 0.1265 µM) stood at 0.396, the relative viability (first compound 0.4 µM) is 0.361 and the relative viability (first compound 1.265 µM) stood at 0.302.

For NCI-H358, the relative viability runs as follows: (first compound 0.04 µM) 0.919; (first compound 0.1265 µM) 0.929; (first compound 0.4 µM) 0.84; (first compound 1.265 µM) 0.643.

As to NCI-H1793, the relative viability runs as follows: (first compound 0.04 µM) 0.597; (first compound 0.1265 µM) 0.721; (first compound 0.4 µM) 0.618; (first compound 1.265 µM) 0.541.

With HCC-366, the relative viability runs as follows: (first compound 0.04 µM) 0.35; (first compound 0.1265 µM) 0.485; (first compound 0.4 µM) 0.478; (first compound 1.265 µM) 0.349.

With NCI-H1651, the relative viability by setting is: (first compound 0.04 µM) 1; (first compound 0.1265 µM) 1.07; (first compound 0.4 µM) 1.04; (first compound 1.265 µM) 0.69.

For the cell line LC-2-ad, the relative viability (first compound 0.04 µM) was found to be 0.489, the relative viability (first compound 0.1265 µM) was 0.963, the relative viability (first compound 0.4 µM) was 0.898 and the relative viability (first compound 1.265 µM) was 0.618.

On to HCC-827, for which the relative viability reads like this: (first compound 0.04 µM) 0.954; (first compound 0.1265 µM) 0.972; (first compound 0.4 µM) 0.926; (first compound 1.265 µM) 0.446.

Turning to SW 1573, the relative viability stood at 0.726 (first compound 0.04 µM), 0.693 (first compound 0.1265 µM), 0.623 (first compound 0.4 µM) and 0.689 (first compound 1.265 µM).

Take ABC-1: the relative viability by setting is: (first compound 0.04 µM) 1.18; (first compound 0.1265 µM) 1.25; (first compound 0.4 µM) 0.954; (first compound 1.265 µM) 1.29.

On to NCI-H1703, for which the relative viability runs as follows: (first compound 0.04 µM) 0.403; (first compound 0.1265 µM) 0.362; (first compound 0.4 µM) 0.327; (first compound 1.265 µM) 0.269.

Regarding COR-L 105, the relative viability (first compound 0.04 µM) stood at 1.09, the relative viability (first compound 0.1265 µM) turned out to be 1.17, the relative viability (first compound 0.4 µM) is 0.789 and the relative viability (first compound 1.265 µM) was 0.971.

For LOU-NH91, the relative viability is, setting by setting: (first compound 0.04 µM) 0.714; (first compound 0.1265 µM) 0.793; (first compound 0.4 µM) 0.679; (first compound 1.265 µM) 0.409.

For the cell line NCI-H727, the relative viability runs as follows: (first compound 0.04 µM) 0.542; (first compound 0.1265 µM) 0.523; (first compound 0.4 µM) 0.518; (first compound 1.265 µM) 0.533.

For LU99A, the relative viability reads like this: (first compound 0.04 µM) 0.457; (first compound 0.1265 µM) 0.498; (first compound 0.4 µM) 0.534; (first compound 1.265 µM) 0.522.

For UMC-11, the relative viability came out at 0.939 (first compound 0.04 µM), 1.13 (first compound 0.1265 µM), 0.96 (first compound 0.4 µM) and 0.857 (first compound 1.265 µM).

On to HOP-62, for which the relative viability is, setting by setting: (first compound 0.04 µM) 0.931; (first compound 0.1265 µM) 0.948; (first compound 0.4 µM) 0.778; (first compound 1.265 µM) 0.694.

Take NCI-H23: the relative viability is 0.761 (first compound 0.1265 µM), 0.636 (first compound 0.4 µM) and 0.631 (first compound 1.265 µM).

For LCLC-103H, the relative viability (first compound 0.04 µM) stood at 0.906, the relative viability (first compound 0.1265 µM) is 0.935, the relative viability (first compound 0.4 µM) was found to be 1.01 and the relative viability (first compound 1.265 µM) is 0.927.

Turning to NCI-H1734, the relative viability came to 0.651 (first compound 0.04 µM), 0.715 (first compound 0.1265 µM), 0.693 (first compound 0.4 µM) and 0.617 (first compound 1.265 µM).

These data come from the supplement of paper PMC10307832.
